In patent US4783482A, “Bis(thiocyanato)palladium(II)complexes” (Engelhard Corporation, priority 1985, dated 1988):

Experiments:
[1] = tested on: S180 ascites; experiment: Anti-tumor evaluation: % increase in life span (% ILS) and survivors, S180 ascites in female CFW Swiss mice; format: in vivo; settings: for Best % ILS: best over doses
Experimental: The above-prepared compounds were evaluated against S180 ascites in female CFW Swiss mice. The mice were weighed (average weight: 20 g), placed into cages (four or six mice to a cage), and on day zero the mice were inoculated with 0.2 ml of a freshly prepared saline suspension (0.15 M NaCl) containing 1×10^7 tumor cells/ml or a total of 2×10^6 cells This inoculum was freshly prepared using "transfer" mice, which had been injected with tumor cells the previous week; it was obtained via the following steps: (1) the removal of cells from the peritoneal cavity of the sacrificed transfer mouse, (2) alternate centrifugation and washing operations (2-3 times with cold saline) to remove blood and other components, and (3) dilution of the volume of the packed cell with saline (1:3). A final centrifugation was carried out at 1000 RPM over a two minute period. A cell count was made on a 2,000-fold dilution of this 1:3 suspension by means of a Coulter Counter. A final dilution to 1×10^7 cells/ml was made, based on the average count.
On day 1, solutions of the test compounds were prepared, and each mouse in a set of four or six were injected with the same test compound at the same dosage. The doses were based on the average weight of the animals (cage weight). Also, beginning on day 1, two controls were employed containing six mice per control:
(1) Normal Control: This consisted solely of the carrier or diluent used in combination with the test compound; and
(2) Positive Control: This consisted solely of known anti-tumor agent cis-[Pt(NH3)2 Cl2 ] in saline (8 mg/kg) to test the response of the biological system.
The effectiveness of a test compound was measured in terms of the % increase in life span (%ILS) of the test mice relative to the Normal Control (Calculated from the day of tumor inoculation, i.e., day zero). To standardize the test data and permit intercomparisons, the day of evaluation was arbitrarily taken as that day corresponding to twice the mean life span (or average day of death) of the control. This established a practical upper limit of 100% on the %ILS attainable. For calculation purposes, the survivors of the day of evaluation were considered to have died on that day. The %ILS was calculated as follows: [formula] ILS values in excess of 50% were interpreted as antitumor activity, whereas values in excess of 75% indicated excellent antitumor activity.
All test compounds were evaluated in water containing 0.1-0.3% of the suspending agent "Klucel" (hydroxypropylcellulose).
Tables 3 and 4, infra, show the criticality of the ring size and the thiocyanato substituents, respectively. The protocols for determining effectiveness for the products in Tables 3 and 4 were identical to the procedure employed for determining the anti-tumor effectiveness of the products in Table 2.

[2] = tested on: S180 Ascites; experiment: ED90, LD50 and therapeutic index, S180 ascites; format: in vivo, mice; parameters: ED90: unit not given here
Experimental: The effective dose (ED90), lethal does (LD50) and therapeutic index (TI) were determined, via the method of Miller and Taiter (Reported by R. A. Turner, "Screening Methods in Pharmacology", Academic Press, New York, pages 61-62 (1976)).
In this study, ED90 represents the dose which causes a 50% increase in life span (ILS) in 90% of the test animals (mice), determined graphically. The LD50 value represents the lethal dose in 50% of said animals.

[3] = dose 10 mg/kg, on day of evaluation
[4] = dose 20 mg/kg, on day of evaluation
[5] = dose 40 mg/kg, on day of evaluation
[6] = dose 80 mg/kg, on day of evaluation
[7] = dose 160 mg/kg, on day of evaluation
[8] = dose 320 mg/kg, on day of evaluation
[9] = dose 5 mg/kg, on day of evaluation (twice mean life span of control)

Structure (SMILES) | % ILS ([1]; dose 10 mg/kg) [%] | Survivors [1, 3] | % ILS ([1]; dose 20 mg/kg) [%] | Survivors [1, 4] | % ILS ([1]; dose 40 mg/kg) [%] | Survivors [1, 5] | % ILS ([1]; dose 80 mg/kg) [%] | Survivors [1, 6] | % ILS ([1]; dose 160 mg/kg) [%] | Survivors [1, 7] | % ILS ([1]; dose 320 mg/kg) [%] | Survivors [1, 8] | ED90 ([2]; dose which causes a 50% increase in life span in 90% of the mice, determined graphically) | Therapeutic Index ([2]; mouse, in vivo) | Best % ILS [1] [%] | % ILS ([1]; dose 5 mg/kg) [%] | Survivors [1, 9]
Nc1ccccc1N.O=N[O-].O=N[O-].[Pd+2] [Comp. Ex. I, dinitro(o-phenylenediamine)palladium(II)] | 21 | 0 of 4 | 3 | 0 of 4 | 29 | 1 of 4 | 19 | 0 of 4 |  |  |  |  |  |  |  |  | 
NCCCN.O=[N+]([O-])[Pd][N+](=O)[O-] [Comp. Ex. G, dinitro(1,3-diaminopropane)palladium(II)] | 13 | 0 of 4 | 16 | 0 of 4 | 27 | 0 of 4 | 0 | 1 of 4 | -89 | 0 of 4 |  |  |  |  |  |  | 
N#C[S][Pd-2]1([S]C#N)[NH2+]c2cccc3cccc(c23)[NH2+]1 [Comp. Ex. D, bis(thiocyanato)-1,8-diaminonaphthalenepalladium(II)] | -11 | 0 of 6 | -9 | 0 of 6 | -11 | 0 of 6 | -19 | 0 of 6 | -28 | 0 of 6 | 48 | 1 of 6 |  |  |  |  | 
Cc1cc2c(cc1C)[NH][Pd]([S]C#N)([S]C#N)[NH]2 [Ex. 6, Bis(Thiocyanato)-4,5-Dimethyl-o-Phenylenediaminepalladium(II)] | 24 | 0 of 6 | 10 | 0 of 6 | 2 | 0 of 6 | 13 | 0 of 6 | 65 | 2 of 6 |  |  | 200 | 1.8 | 65 | -1 | 0 of 6
N#C[S][Pd-2]1([S]C#N)[NH2+]CCC[NH2+]1 [Comp. Ex. A, bis(thiocyanato)-1,3-diaminopropanepalladium(II)] | 1 | 0 of 4 | 9 | 0 of 4 | -4 | 0 of 4 | -70 | 0 of 4 | -88 | 0 of 4 | -93 | 0 of 4 |  |  |  |  | 
C[NH+]1CC[NH+](C)[Pd-2]1([S]C#N)[S]C#N (stereo not drawn) [Ex. 4, Bis(Thiocyanato)-N,N'-Dimethylethylenediaminepalladium(II)] | 1 | 0 of 6 | -5 | 0 of 6 | 18 | 1 of 6 | 62 | 2 of 6 | -45 | 1 of 6 |  |  |  |  | 62 | -2 | 0 of 6
N#C[S-].N#C[S-].NCC(=O)CN.[Pd+2] [Comp. Ex. E, Bis(Thiocyanato)diaminoacetonepalladium(II)] | 8 | 0 of 4 | 13 | 0 of 4 | 3 | 0 of 4 | 1 | 0 of 4 | 13 | 0 of 4 |  |  |  |  |  | 3 | 0 of 4
N#C[S][Pd]1([S]C#N)[NH]CC(O)C[NH]1 [Comp. Ex. C, bis(thiocyanato)-1,3-diamino-2-propanolpalladium(II)] | -4 | 0 of 6 | -7 | 0 of 6 | -8 | 0 of 6 | -76 | 0 of 6 | -87 | 0 of 6 | -92 | 0 of 6 |  |  |  |  | 
NCCN.O=N[O-].O=N[O-].[Pd+2] [Comp. Ex. F, Dinitro(Ethylenediamine)palladium(II)] | 2 | 0 of 4 | 6 | 0 of 4 | -15 | 0 of 4 | -59 | 0 of 4 | -87 | 0 of 4 |  |  |  |  |  |  | 
N#C[S-].N#C[S-].NCCN.[Pd+2] [Ex. 1, Bis(Thiocyanato)ethylenediaminepalladium(II)] | 2 | 0 of 4 | 18 | 0 of 4 | 79 | 0 of 4 | 2 | 1 of 4 | -87 | 0 of 4 | -87 | 0 of 4 |  |  | 79 |  | 
[I][Pd]1([I])[NH]C2CCCCC2[NH]1 (stereo not drawn) [Comp. Ex. M, Diiodo(1,2-Diaminocyclohexane)palladium(II)] | -9 | 0 of 4 | -20 | 0 of 4 | -15 | 0 of 4 | -16 | 0 of 4 | 77 | 1 of 4 |  |  |  |  |  | -4 | 0 of 4
CC1C[NH][Pd]([S]C#N)([S]C#N)[NH]1 (stereo not drawn) [Ex. 2, Bis(Thiocyanato)-1,2-Diaminopropanepalladium(II)] | 13 | 0 of 6 | 17 | 0 of 6 | 59 | 2 of 6 | -21 | 1 of 6 | -74 | 0 of 6 |  |  |  |  | 59 | 16 | 0 of 6
NC1CCCCC1N.O=[N+]([O-])[Pd][N+](=O)[O-] (stereo not drawn) [Comp. Ex. H, Dinitro(1,2-diaminocyclohexane)palladium(II)] | 12 | 0 of 4 | 3 | 0 of 4 | -3 | 0 of 4 | 21 | 0 of 4 |  |  |  |  |  |  |  |  | 
N#C[S][Pd][S]C#N.NCCCCN [Comp. Ex. B, bis(thiocyanato)-1,4-diaminobutanepalladium(II)] | -1 | 0 of 6 | 15 | 0 of 6 | -4 | 0 of 6 | -21 | 0 of 5 | 47 | 0 of 5 | 2 | 0 of 5 |  |  |  |  | 
NCCN.[I-].[I-].[Pd+2] [Comp. Ex. L, Diiodo(ethylenediamine)palladium(II)] | -13 | 0 of 4 | -9 | 0 of 4 | -11 | 0 of 4 | 24 | 0 of 4 | 32 | 1 of 4 |  |  |  |  |  | -17 | 0 of 4
